From patent publication US8691804B2 (Evotec AG, priority 2008, dated 2014)

Each compound was assayed against T1, human H3 receptors (Homo sapiens, UniProt Q9Y5N1) (assay: cAMP quantification assay for human H3 receptor testing). Details: CHO-K1 cells expressing human H3 receptors; inhibition of agonist-induced decrease of cAMP; 100 nM histamine, 10 μM forskolin; read-out: Potency range (IC50 values).
T1 construct: host or cells: CHO-K1
Assay type: cell-based
Procedure, shortened: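 CHO-K1 cells expressing human H3 (10,000/well) were preincubated 30 min at 37 °C with compound in PBS containing 1 mM IBMX and 0.03% BSA. They were then challenged 30 min with agonist solution (100 nM histamine plus 10 μM forskolin). cAMP was quantified by enzyme-complementation luminescence, with 8 concentrations in triplicate at 1% DMSO.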

T1 sequence (Q9Y5N1 whole entry): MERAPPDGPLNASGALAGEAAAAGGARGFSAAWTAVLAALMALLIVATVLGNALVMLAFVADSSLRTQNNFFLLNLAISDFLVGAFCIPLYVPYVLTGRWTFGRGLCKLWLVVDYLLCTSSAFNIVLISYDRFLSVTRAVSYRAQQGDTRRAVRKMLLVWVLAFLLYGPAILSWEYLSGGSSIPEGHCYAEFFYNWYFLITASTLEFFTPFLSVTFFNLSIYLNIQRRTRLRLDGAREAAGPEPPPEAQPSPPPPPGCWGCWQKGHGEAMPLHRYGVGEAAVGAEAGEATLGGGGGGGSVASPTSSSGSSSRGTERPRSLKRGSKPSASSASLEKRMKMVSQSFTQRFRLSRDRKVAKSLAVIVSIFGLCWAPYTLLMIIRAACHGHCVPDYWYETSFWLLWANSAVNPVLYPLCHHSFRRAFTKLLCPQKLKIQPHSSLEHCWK

Row | SMILES | IC50 [µM]
1 | CNC(=O)c1ccc(OCC2CN(C(=O)N3CCCN(C4CCC4)CC3)C2)cn1 [Example 138, 5-({1-[(4-cyclobutyl-1,4-diazepan-1-yl)carbonyl]azetidin-3-yl}methoxy)-N-methylpyridine-2-carboxamide] | < 0.1
2 | Cc1ccc(C(=O)NC2CN(C(=O)N3CCCN(C4CCC4)CC3)C2)cn1 [Example 139, N-{1-[(4-cyclobutyl-1,4-diazepan-1-yl)carbonyl]azetidin-3-yl}-6-methylpyridine-3-carboxamide] | < 0.1
3 | O=C(NC1CN(C(=O)N2CCCN(C3CCC3)CC2)C1)C1CCCCC1 [Example 141, N-{1-[(4-cyclobutyl-1,4-diazepan-1-yl)carbonyl]azetidin-3-yl}cyclohexanecarboxamide] | < 0.1
4 | Cc1ccc(C(=O)N(C)C2CN(C(=O)N3CCCN(C4CCC4)CC3)C2)cn1 [Example 143, N-{1-[(4-cyclobutyl-1,4-diazepan-1-yl)carbonyl]azetidin-3-yl}-N,6-dimethylpyridine-3-carboxamide] | < 0.1
5 | CN(C(=O)C1CN(C(=O)N2CCCN(C3CCC3)CC2)C1)c1ccc(Cl)cc1 [Example 146, N-(4-chlorophenyl)-1-[(4-cyclobutyl-1,4-diazepan-1-yl)carbonyl]-N-methylazetidine-3-carboxamide] | < 0.1
6 | CNC(=O)c1cc(OC2CN(C(=O)N3CCCN(C4CCC4)CC3)C2)ccn1 [Example 147, 4-({1-[(4-cyclobutyl-1,4-diazepan-1-yl)carbonyl]azetidin-3-yl}oxy)-N-methylpyridine-2-carboxamide] | < 0.1
7 | COCC1CN(C(=O)N2CCCN(C3CCC3)CC2)C1 [Example 148, 1-cyclobutyl-4-{[3-(methoxymethyl)azetidin-1-yl]carbonyl}-1,4-diazepane] | < 0.1
8 | O=C(N1CCCN(C2CCC2)CC1)N1CC(Oc2ccc3ccccc3c2)C1 [Example 152, 1-cyclobutyl-4-{[3-(naphthalen-2-yloxy)azetidin-1-yl]carbonyl}-1,4-diazepane] | < 0.1
9 | O=C(N1CCCN(C2CCC2)CC1)N1CC(Oc2ccc3[nH]ccc3c2)C1 [Example 154, 5-({1-[(4-cyclobutyl-1,4-diazepan-1-yl)carbonyl]azetidin-3-yl}oxy)-1H-indole] | < 0.1
10 | CC(C)(CO)c1ccc(OC2CN(C(=O)N3CCCN(C4CCC4)CC3)C2)cn1 [Example 156, 2-[5-({1-[(4-cyclobutyl-1,4-diazepan-1-yl)carbonyl]azetidin-3-yl}oxy)pyridin-2-yl]-2-methylpropan-1-ol] | < 0.1
11 | CC(C)N1CCCN(C(=O)N2CC(Oc3ccc(C(C)(C)O)nc3)C2)CC1 [Example 158, 2-{5-[(1-{[4-(1-methylethyl)-1,4-diazepan-1-yl]carbonyl}azetidin-3-yl)oxy]pyridin-2-yl}propan-2-ol] | < 0.1
12 | COc1ccc(OC2CN(C(=O)N3CCCN(C4CCC4)CC3)C2)nc1 [Example 161, 1-cyclobutyl-4-({3-[(5-methoxypyridin-2-yl)oxy]azetidin-1-yl}carbonyl)-1,4-diazepane] | < 0.1
13 | Cc1ccc(COC2CN(C(=O)N3CCCN(C4CCC4)CC3)C2)cn1 [Example 164, 1-cyclobutyl-4-({3-[(6-methylpyridin-3-yl)methoxy]azetidin-1-yl}carbonyl)-1,4-diazepane] | < 0.1
14 | CC(C)(O)c1ccc(O[C@H]2C[C@@H](C(=O)N3CCCN(C4CCC4)CC3)C2)cn1 [Example 165, 2-[5-({cis-3-[(4-cyclobutyl-1,4-diazepan-1-yl)carbonyl]cyclobutyl}oxy)pyridin-2-yl]propan-2-ol] | < 0.1

Other lines, results leading:

Row | IC50 [µM] | SMILES
15 | < 0.1 | CN1CCc2cc(OCC3CN(C(=O)N4CCCN(C5CCC5)CC4)C3)ccc2C1=O [Example 137, 6-({1-[(4-cyclobutyl-1,4-diazepan-1-yl)carbonyl]azetidin-3-yl}methoxy)-2-methyl-3,4-dihydroisoquinolin-1(2H)-one]
16 | < 0.1 | O=C(NC1CN(C(=O)N2CCCN(C3CCC3)CC2)C1)c1ccc(Cl)cc1 [Example 140, 4-chloro-N-{1-[(4-cyclobutyl-1,4-diazepan-1-yl)carbonyl]azetidin-3-yl}benzamide]
17 | < 0.1 | CN(C(=O)c1ccc(Cl)cc1)C1CN(C(=O)N2CCCN(C3CCC3)CC2)C1 [Example 142, 4-chloro-N-{1-[(4-cyclobutyl-1,4-diazepan-1-yl)carbonyl]azetidin-3-yl}-N-methylbenzamide]
18 | < 0.1 | CN(C(=O)C1CCCCC1)C1CN(C(=O)N2CCCN(C3CCC3)CC2)C1 [Example 144, N-{1-[(4-cyclobutyl-1,4-diazepan-1-yl)carbonyl]azetidin-3-yl}-N-methylcyclohexanecarboxamide]
19 | < 0.1 | Cc1ccc(N(C)C(=O)C2CN(C(=O)N3CCCN(C4CCC4)CC3)C2)cn1 [Example 145, 1-[(4-cyclobutyl-1,4-diazepan-1-yl)carbonyl]-N-methyl-N-(6-methylpyridin-3-yl)azetidine-3-carboxamide]
20 | < 0.1 | Cn1cc(-c2ccc(OC3CN(C(=O)N4CCCN(C5CCC5)CC4)C3)cc2)cn1 [Example 149, 1-cyclobutyl-4-({3-[4-(1-methyl-1H-pyrazol-4-yl)phenoxy]azetidin-1-yl}carbonyl)-1,4-diazepane]
21 | < 0.1 | Cc1nn(C)c(C)c1-c1ccc(OC2CN(C(=O)N3CCCN(C4CCC4)CC3)C2)cc1 [Example 150, 1-cyclobutyl-4-({3-[4-(1,3,5-trimethyl-1H-pyrazol-4-yl)phenoxy]azetidin-1-yl}carbonyl)-1,4-diazepane]
22 | < 0.1 | Cc1nccc(OC2CN(C(=O)N3CCCN(C4CCC4)CC3)C2)c1F [Example 151, 1-cyclobutyl-4-({3-[(3-fluoro-2-methylpyridin-4-yl)oxy]azetidin-1-yl}carbonyl)-1,4-diazepane]
23 | < 0.1 | O=C(N1CCCN(C2CCC2)CC1)N1CC(COc2ccc(C(F)(F)F)nc2)C1 [Example 153, 1-cyclobutyl-4-{[3-({[6-(trifluoromethyl)pyridin-3-yl]oxy}methyl)azetidin-1-yl]carbonyl}-1,4-diazepane]
24 | < 0.1 | Cn1ccc2cc(OC3CN(C(=O)N4CCCN(C5CCC5)CC4)C3)ccc21 [Example 155, 5-({1-[(4-cyclobutyl-1,4-diazepan-1-yl)carbonyl]azetidin-3-yl}oxy)-1-methyl-1H-indole]
25 | < 0.1 | CCN1CCCN(C(=O)N2CC(Oc3ccc(C(C)(C)O)nc3)C2)CC1 [Example 157, 2-[5-({1-[(4-ethyl-1,4-diazepan-1-yl)carbonyl]azetidin-3-yl}oxy)pyridin-2-yl]propan-2-ol]
26 | 0.5 to 5 | CC(C)(O)c1ccc(OC2CN(C(=O)N3CCCN(C4CCCC4)CC3)C2)cn1 [Example 159, 2-[5-({1-[(4-cyclopentyl-1,4-diazepan-1-yl)carbonyl]azetidin-3-yl}oxy)pyridin-2-yl]propan-2-ol]
27 | < 0.1 | O=C(N1CCCN(C2CCC2)CC1)N1CC(Oc2ncc(F)cn2)C1 [Example 160, 1-cyclobutyl-4-({3-[(5-fluoropyrimidin-2-yl)oxy]azetidin-1-yl}carbonyl)-1,4-diazepane]
28 | 0.5 to 5 | CCc1cnc(OC2CN(C(=O)N3CCCN(C4CCC4)CC3)C2)nc1 [Example 162, 1-cyclobutyl-4-({3-[(5-ethylpyrimidin-2-yl)oxy]azetidin-1-yl}carbonyl)-1,4-diazepane]
29 | < 0.1 | CS(=O)(=O)c1ccc(OC2CN(C(=O)N3CCCN(C4CCC4)CC3)C2)cc1 [Example 163, 1-cyclobutyl-4-({3-[4-(methylsulfonyl)phenoxy]azetidin-1-yl}carbonyl)-1,4-diazepane]
